From patent EP0974351A2, “Medicament for preventing and treating gastrointestinal damage” (JOUVEINAL, priority 1998, dated 2000)

Columns and labels:
[1] = test system: handling responses following withdrawal of chronic ethanol treatment; experiment: Handling-induced behavior after ethanol withdrawal in mice; type: in vivo, Male albino mice of the outbred TO strain
Method: Male albino mice of the outbred TO strain (Bantin and Kingman, UK) were used in all studies. The weight ranged from 25 to 35 g, with no more than a 5 g range in any single experiment. The mice were housed, eight per cage, at 21°C ± 1°C, with 55 ± 10% relative humidity, and a 12-hour light/dark cycle with the light phase between 09:00 to 21:00. All mice received ad libitum access to tap water and standard laboratory chow (RM-1, Special Diet Services, UK) until their use in experiments or until their diet was replaced with a liquid diet.
Ethanol was administered in a liquid diet schedule. All mice received control diet for an initial 2-day period. Ethanol treated mice then received a diet containing 3.5% (v/v) ethanol/water for 2 days, followed by a diet containing 7% ethanol for a further 5 days. The average intake was 22 to 30 g/kg/day. Control groups were pair-fed a control diet, balanced isocalorifically to match the ethanol containing diet. There were no differences in the weights of the ethanol-treated and control mice at the end of the treatment periods. When mice were withdrawn from the ethanol (between 07:00 AM and 09:00 AM), they were provided with tap water until their use in experiments.
Gabapentin was dissolved in saline, the solution being made freshly each testing day. Intraperitoneal (i.p.) injections of either gabapentin, 10 mL/kg, or saline, were given immediately on withdrawal from the ethanol treatment, in the studies on the handling responses and 2 hours prior to measurement of audiogenic seizures. In the experiments using the elevated plus maze, gabapentin or saline was injected i.p. at 8 hours after the removal of the ethanol diet, and the mice placed on the plus maze 60 minutes after the injections. In the studies on motor co-ordination (ataxia) and on locomotor activity, gabapentin or saline was injected to ethanol-naive chow fed mice immediately before testing. Measurements were then made for 60 minutes for the ataxia study, and for 30 minutes in the case of the locomotor activity.
Following withdrawal from the ethanol treatment at 09:00 AM, ratings of handling-induced behavior were assessed by the same experimenter, on the same mice, every hour for a period of 12 hours after withdrawal from ethanol.
Each mouse was lifted gently by the tail and held for 3 seconds, 30 cm under an "Anglepoise lamp" with a 60-watt bulb. The animal was gently rotated and its ensuing behavior rated on a scale of 1 to 5 according to the criteria in Table 2. Groups of 15 mice were used in each of the treatment groups, and the data were calculated as medians with interquartile ranges. The data were also expressed as the area under the curve at 4 and 12 hours from the withdrawal of the ethanol treatment.
The results of the handling response ratings were compared by nonparametric two-way analysis of variance, designed for repeat measures on the same animal. The results of the area under the curve calculations were compared by the Mann-Whitney U-test. The convulsion incidence was analyzed by Fisher's exact probability test. The measurements from the elevated plus maze were subjected to one-way analysis of variance, followed by a Bonuferroni multiple comparison test, comparing all groups to the control group which received saline injections, and also both ethanol treated groups which received gabapentin to the ethanol treated group which received saline. The ataxia measurements were analyzed by the Mann-Whitney U-test and the locomotor activity by Student's t-test.

[2] = test system: Abdominal Response Induced by Rectal Distension; experiment: Abdominal response induced by rectal distension in rats (electromyography); type: in vivo, Male Wistar rats
Description: The GABA analogs also have been evaluated for their ability to control and treat gastrointestinal disorders characterized as IBD and IBS. The assay utilized to evaluate the GABA analogs measures the effects of compound on lipopolysaccharide-induced delayed rectal allodynia in rats. Intraperitoneal (IP) injections of the endotoxin lipopolysaccharide (LPS) are known to induce long-lasting hyperalgesia in somatic pain models. The following assay was designed to evaluate the effect of IP injections of LPS on pain visceral threshold in an experimental model of rectal distension.
Male Wistar rats weighing 250 to 350 g were surgically prepared for electromyography, according to a previously described technique. Rats were anesthetized by i.p. injection of acepromazine and ketamine (Imalgene 1000, Rhöne-Mérieux, Lyon, France) at doses of 0.6 and 120 mg/kg, respectively. […] Electrodes were exteriorized on the back of the neck and protected by a glass tube attached to the skin. Animals were individually housed in polypropylene cages and kept in a temperature-controlled room (21°C). They were allowed free access to water and food (UAR pellets, Epinay, France).
Electromyographic recording began 5 days after surgery. The electrical activity of abdominal striated muscles was recorded with an electroencephalograph machine (Mini VIII, Alvar, Paris, France) using a short-time constant (0.03 sec) to remove low-frequency signals (<3 Hz) and a paper speed of 3.6 cm/minute.
Rats were placed in plastic tunnels (6 cm diameter; 25 cm length) where they could not move, escape or turn around, in order to prevent damage to the balloon. They are accustomized to this procedure for 3 or 4 days before rectal distension (RD) in order to minimize stress reaction during experiments. […] The balloon used for distension was an arterial embolectomy catheter (Fogarty, Edwards Laboratories, Inc., Santa Ana, USA). RD was performed by insertion of the balloon (2-mm diameter; 2-cm long) in the rectum, at 1 cm of the anus, the catheter being fixed at the tail. It was inflated progressively by step of 0.4 mL, from 0 to 1.6 mL, each step of inflation lasting 5 minutes. To detect possible leakage, the volume of water introduced in the balloon was checked by complete removal with a syringe at the end of the distension period.
In a first series of experiments, a group of 89 rats were submitted to gradual rectal distention. The animals were previously (30 minutes) treated by gabapentin at doses of 30 and 100 mg/kg IP or its vehicle ([…]).
Statistical analysis of the number of abdominal contractions occurring during each 5-minute period during RD was performed by one-way ANOVA followed by Student's paired t-test. Values were expressed as the mean ± SEM, and differences were considered significant for p <0.05.

NCC1(CC(=O)O)CCCCC1 [Gabapentin, 1-(aminomethyl)-cyclohexane acetic acid]
area under the handling curve for the first 4 hours ([1]; gabapentin 20 mg/kg i.p., p <0.05): significant effects | area under the handling curve for the first 4 hours ([1]; gabapentin 50 mg/kg i.p., p <0.05): significant effects | duration of marked reduction in handling scores ([1]; gabapentin 100 mg/kg i.p.): around 4 hours | ratings of behavior in response to gentle handling over the 12-hour testing period ([1]; gabapentin 100 mg/kg i.p. on withdrawal from ethanol, p <0.001): significantly reduced | area under the handling curve for the first 4 hours ([1]; gabapentin 100 mg/kg i.p., p <0.01): significant effects | ratings of behavior in response to gentle handling over the 12-hour period of measurement ([1]; lower doses of gabapentin (below 100 mg/kg) i.p. on withdrawal from ethanol): not significant | Number of abdominal contractions/5 minutes ([2]; Gabapentin 30 mg/kg IP 30 min before, volume of distension 0.4mL, vehicle 4.4 ± 1.6, mean ± SEM): 5.0 ± 2.1 abdominal contractions/5 minutes | % of reduction vs vehicle ([2]; Gabapentin 30 mg/kg IP, volume of distension 0.8 mL): -45% | Number of abdominal contractions/5 minutes ([2]; Gabapentin 30 mg/kg IP, volume of distension 0.8 mL, vehicle 19.1 ± 2.8, p <0.01): 10.6 ± 3.4 abdominal contractions/5 minutes | % of reduction vs vehicle ([2]; Gabapentin 30 mg/kg IP, volume of distension 1.2 mL): -31.2% | Number of abdominal contractions/5 minutes ([2]; Gabapentin 30 mg/kg IP, volume of distension 1.2 mL, vehicle 23.4 ± 2.6, p <0.05): 16.1 ± 2.3 abdominal contractions/5 minutes | Number of abdominal contractions/5 minutes ([2]; Gabapentin 100 mg/kg IP, volume of distension 0.4mL, vehicle 3.9 ± 1.8): 2.0 ± 1.4 abdominal contractions/5 minutes | % of reduction vs vehicle ([2]; Gabapentin 100 mg/kg IP, volume of distension 0.8 mL): -61.2% | Number of abdominal contractions/5 minutes ([2]; Gabapentin 100 mg/kg IP, volume of distension 0.8 mL, vehicle 19.6 ± 2.3, p <0.01): 7.6 ± 3.4 abdominal contractions/5 minutes | Number of abdominal contractions/5 minutes ([2]; Gabapentin 100 mg/kg IP, volume of distension 1.2 mL, vehicle 19.1 ± 2.3): 16.7 ± 2.9 abdominal contractions/5 minutes
